{"source": "patent US20060093658A1", "about": "(priority 2004, published 2006)", "key": {"in vivo [1]": {"test": "in vivo", "conditions": "hairless, guinea pig", "procedure": "The retainer ring containing the patch was loaded onto an impact applicator, and the patch was applied to the prepared skin site with an impact energy of 0.26 J, delivered in less than 10 ms.\nEfficiency of delivery was calculated as the percentage delivered of the total dose coated onto the array. For mass balance calculations, drug residuals left on the skin and on the array were also taken into account."}, "[2]": {"test": "skin response / tolerability of microneedle patches", "assay_type": "in vivo", "text": "Following system removal, skin sites were visually assessed for signs of erythema, edema, bleeding, and infection until the sites returned to normal."}, "clinical": {"test": "clinical", "conditions": "both, human, in vivo, iv", "procedure": "(§1) Methods: This was a 2-part study in healthy human volunteers (18-45 years). […] All treatments were administered 30 minutes after a subcutaneous injection of low-molecular weight heparin to counteract the increase in clotting factors in the healthy volunteer population. […] Topical effects were also examined. Pain upon patch application was scored and compared to subcutaneous saline injection with a 27-gauge needle. […] Bleeding assessment (visual and photographic) were measured 2 min post-system removal. […] Routine safely assessments were also included, including the following: solicitation of Adverse Events (AEs), measurement of vital signs, measurement of serum sodium concentration and platelets, and measurement of urine output, specific gravity and osmolality.\nData analysis included a review of PK parameters (Cmax, Tmax, elimination rate constant, apparent half-life, and AUCinf) and were estimated using standard methodology. […] The intra-individual (sigma) and inter-individual (CV %) variabilities were estimated using additive+proportional and log normal distributions, respectively. Model performance between hierarchical models was assessed both numerically (Objective Function, OBJ) and graphically (comparison of the predicted and observed data). A reduction of^3 6.7 units in OBJ per additional structural model parameter was considered significant at p<0.01 on the x^2 distribution."}, "[3]": {"test_system": "plasma coagulation Factor VIII", "test": "pharmacodynamic effect on plasma coagulation Factor VIII levels (one-stage clotting assay)", "assay_type": "in vivo, human", "procedure": "as §1"}, "in vivo [4]": {"test": "in vivo", "conditions": "hairless, guinea pig", "remark": "listed apart in the source"}, "[5]": {"conditions": "cited from earlier work"}, "[6]": {"conditions": "desmopressin-coated microneedle patches"}}}
{"compound": "NC(=O)CC[C@@H]1NC(=O)[C@H](Cc2ccccc2)NC(=O)[C@H](Cc2ccc(O)cc2)NC(=O)CCSSC[C@@H](C(=O)N2CCC[C@H]2C(=O)N[C@H](CCCN=C(N)N)C(=O)NCC(N)=O)NC(=O)[C@H](CC(N)=O)NC1=O", "note": "[desmopressin]", "values": [{"measurement": "dose excreted", "setting": "in vivo [1]; iv, 20 ug", "value": 71, "unit": "%"}, {"measurement": "bioavailability", "setting": "in vivo [1]; outbred euthymic (ibm:GOHI-hr and IAF:HA-HO-hr)", "value": 85, "unit": "%"}, {"measurement": "tolerability of the desmopressin-coated microneedle patches", "setting": "[2]; 5 or 15 min wear", "value": "well tolerated"}, {"measurement": "erythema following removal of the systems", "setting": "[2]; [6]", "value": "only mild erythema"}, {"measurement": "signs of edema, bleeding, or infection", "setting": "[2]; [6]", "value": "no signs of edema, bleeding, or infection"}, {"measurement": "time to resolution of erythema", "setting": "[2]; [6]", "value": "≤ 24", "unit": "h"}, {"measurement": "Tmax", "setting": "clinical", "value": 0.26, "unit": "h"}, {"measurement": "t1/2", "setting": "clinical", "value": "3.8 ± 1.25", "unit": "h"}, {"measurement": "Tmax", "setting": "clinical; 15 ug, time of peak concentration", "value": 0.25, "unit": "h"}, {"measurement": "Tmax", "setting": "clinical; Tmax", "value": 0.5, "unit": "h"}, {"measurement": "half-life", "setting": "clinical; mean half-life", "value": "3.1 to 3.8", "unit": "h"}, {"measurement": "half-life", "setting": "clinical; t1/2", "value": "3.1 ± 0.38", "unit": "h"}, {"measurement": "Factor VIII value", "setting": "[3]; IV-15 ug", "value": "280 % of baseline value"}, {"measurement": "Factor VIII value", "setting": "[3]; IV-30 ug", "value": "321 % of baseline value"}, {"measurement": "pharmacological activity of absorbed desmopressin (factor VIII measurements)", "setting": "[3]; desmopressin absorbed after MFLX / IV", "value": "pharmacologically active"}, {"measurement": "AUC", "setting": "in vivo [4]; 82 ug", "value": 76, "unit": "ng·h/mL"}, {"measurement": "Cmax", "setting": "in vivo [4]; 82 ug", "value": 49, "unit": "ng/mL"}, {"measurement": "AUC", "setting": "in vivo [4]; iv, 11 ug", "value": 50.5, "unit": "ng·h/mL"}, {"measurement": "Tmax", "setting": "in vivo [4]; outbred euthymic (ibm:GOHI-hr and IAF:HA-HO-hr), 82 ug", "value": 1, "unit": "h"}, {"measurement": "nasal bioavailability", "setting": "[5]; human, in vivo, inhaled or intranasal", "value": 3.4, "unit": "%"}, {"measurement": "oral bioavailability", "setting": "[5]; oral administration", "value": 0.1, "unit": "%"}]}
